Source: patent US20240398817A1, “CARDIO- AND RENOSAFE ANTIDIABETIC THERAPY” (priority 2018, published 2024)

System: patients with type 2 diabetes at high vascular risk
Experiment: Cardiovascular and Renal Outcomes Trial: linagliptin 5 mg once daily vs placebo on top of standard of care
Format: in vivo
Settings: for Hazard ratio for hospitalised heart failure: vs placebo
Method: The effect of linagliptin on cardiovascular risk in adult patients with type 2 diabetes mellitus and with increased CV risk evidenced by a history of established macrovascular or renal disease (e.g. as defined herein) was evaluated in a multi-center, multi-national, randomized, double-blind parallel group trial. The trial compared the risk of experiencing a major adverse cardiovascular event (MACE) between linagliptin and placebo when these were added to and used concomitantly with standard of care treatments for diabetes (HbA1c), cardiovascular risk factors and renal disease.
The primary endpoint in this trial was the time to first occurrence of three point (3P) MACE. A major adverse cardiac event was defined as a cardiovascular death or a nonfatal myocardial infarction (MI) or a nonfatal stroke. The statistical analysis plan tested for non-inferiority for the occurrence of (3P) MACE. […] The secondary endpoint was a renal composite, defined as renal death or sustained end stage renal disease or sustained decrease of 40% or more in eGFR.
Type 2 diabetes patient with insufficient glycemic control (naïve or pre-treated with any antidiabetic background medication, excluding treatment with GLP-1 receptor agonists, DPP-4inhibitors or SGLT-2 inhibitors if ≥consecutive 7 days, e.g. having HbA1c 6.5-10%), and high risk of cardiovascular events, e.g. defined by: • albuminuria (micro or macro) and previous macrovascular disease: e.g. defined according to Condition I as indicated below; • and/or • impaired renal function: e.g. as defined according to Condition II as indicated below;
Background and aims: People with type 2 diabetes (T2D) are at increased risk for hospitalization for heart failure (hHF), particularly in the setting of concomitant cardiovascular (CV) and/or kidney disease. […] Here we present analyses of HF outcomes with the DPP-4 inhibitor linagliptin (LINA) vs. placebo (PBO) from a Cardiovascular and Renal Outcomes Trial assessing cardiovascular safety and renal microvascular outcome in patients with type 2 diabetes at high vascular risk, a large CV outcomes trial that enrolled participants with T2D at high risk for hHF due to concomitant CV and/or chronic kidney disease. Materials and methods: People with T2D and concomitant CV and/or kidney disease were randomized to receive LINA 5 mg, or PBO once daily (1:1), on top of standard of care. All hHF, CV outcomes, and deaths were centrally adjudicated, with individual and composite HF-related outcomes analyses comparing LINA vs. placebo. Investigator-reported HF-related adverse events, whether or not confirmed by adjudication, were also analyzed. A Cox proportional hazards model adjusting for region and history of HF was used for analyses of first events. Recurrent hHF events were analyzed using a negative binomial model.
Methods: The present Cardiovascular and Renal Outcomes Trial randomized people with T2D and i) concomitant CV disease with UACR >30 mg/g or ii) prevalent CKD (i.e. GFR <45 ml/min/1.73m2 and/or UACR >200 mg/g) to receive the DPP-4 inhibitor linagliptin (5 mg) or placebo once daily in a double-blind fashion. The primary CV endpoint was 3P-MACE, with a key secondary kidney endpoint (adjudicated ESKD, renal death, or sustained ≥40% decrease in eGFR from baseline) and other renal outcomes (including albuminuria and eGFR slope) also assessed. Subgroups were assessed by baseline kidney function (eGFR ≥/<45 ml/min/1.73m2and eGFR ≥/<30, 45 or 60 ml/min/1.73m2).
Adults with type 2 diabetes, HbA1c 6.5-10.0% inclusive, and high CV risk were eligible for inclusion. […] Macrovascular disease eligibility criteria was based on documented and confirmed history of myocardial infarction, coronary artery disease, stroke, carotid artery disease, or peripheral artery disease. Participants with end-stage kidney disease (ESKD), defined as eGFR <15 or requiring maintenance dialysis, were excluded.

[1] = Urine albumin-to-creatinine ratio 30 to 300 mg/g
[2] = Urine albumin-to-creatinine ratio <30 mg/g
[3] = Urine albumin-to-creatinine ratio >300 mg/g

## CC#CCn1c(N2CCC[C@@H](N)C2)nc2c1c(=O)n(Cc1nc(C)c3ccccc3n1)c(=O)n2C [Linagliptin, 1-[(4-methyl-quinazolin-2-yl)methyl]-3-methyl-7-(2-butyn-1-yl)-8-(3-(R)-amino-piperidin-1-yl)-xanthine]
Race Other
  3-point MACE: hazard ratio vs placebo: 1.86
  3-point MACE: patients with event/patients analyzed: 23/166
  Key secondary kidney outcome: hazard ratio vs placebo: 1.16
  Key secondary kidney outcome: patients with event/patients analyzed: 23/166
  Patients with event/patients analysed, hospitalised heart failure: 6/166
Race White
  3-point MACE: hazard ratio vs placebo: 0.97
  3-point MACE: patients with event/patients analyzed: 340/2827
  Key secondary kidney outcome: hazard ratio vs placebo: 1.03
  Key secondary kidney outcome: patients with event/patients analyzed: 237/2827
  Patients with event/patients analysed, hospitalised heart failure: 174/2827
Region Asia
  3-point MACE: hazard ratio vs placebo: 0.90
  3-point MACE: patients with event/patients analyzed: 29/272
  Key secondary kidney outcome: hazard ratio vs placebo: 0.96
  Key secondary kidney outcome: patients with event/patients analyzed: 29/272
  Patients with event/patients analysed, hospitalised heart failure: 12/272
  Hazard ratio for hospitalised heart failure: 0.47
Region Europe + South Africa
  3-point MACE: hazard ratio vs placebo: 0.92
  3-point MACE: patients with event/patients analyzed: 182/1473
  Key secondary kidney outcome: hazard ratio vs placebo: 0.96
  Key secondary kidney outcome: patients with event/patients analyzed: 98/1473
  Patients with event/patients analysed, hospitalised heart failure: 101/1473
  Hazard ratio for hospitalised heart failure: 1.13
Region Latin America
  3-point MACE: hazard ratio vs placebo: 1.10
  3-point MACE: patients with event/patients analyzed: 132/1156
  Key secondary kidney outcome: hazard ratio vs placebo: 1.07
  Key secondary kidney outcome: patients with event/patients analyzed: 149/1156
  Patients with event/patients analysed, hospitalised heart failure: 54/1156
  Hazard ratio for hospitalised heart failure: 0.99
Region North America
  3-point MACE: hazard ratio vs placebo: 1.25
  3-point MACE: patients with event/patients analyzed: 91/593
  Key secondary kidney outcome: hazard ratio vs placebo: 1.19
  Key secondary kidney outcome: patients with event/patients analyzed: 51/593
  Patients with event/patients analysed, hospitalised heart failure: 42/593
  Hazard ratio for hospitalised heart failure: 0.65
SBP 140 mmHg or DBP ≥90 mmHg
  Key secondary kidney outcome: hazard ratio vs placebo: 1.08
  Key secondary kidney outcome: patients with event/patients analyzed: 222/1800
SBP <140 mmHg and DBP <90 mmHg
  3-point MACE: hazard ratio vs placebo: 0.93
  3-point MACE: patients with event/patients analyzed: 185/1694
  Key secondary kidney outcome: hazard ratio vs placebo: 0.99
  Key secondary kidney outcome: patients with event/patients analyzed: 105/1694
SBP ≥140 mmHg or DBP ≥90 mmHg
  3-point MACE: hazard ratio vs placebo: 1.11
  3-point MACE: patients with event/patients analyzed: 249/1800
Sulfonylurea No
  3-point MACE: hazard ratio vs placebo: 0.98
  3-point MACE: patients with event/patients analyzed: 315/2392
  Key secondary kidney outcome: hazard ratio vs placebo: 1.10
  Key secondary kidney outcome: patients with event/patients analyzed: 252/2392
  Patients with event/patients analysed, hospitalised heart failure: 166/2392
  Hazard ratio for hospitalised heart failure: 0.92
Sulfonylurea Yes
  3-point MACE: hazard ratio vs placebo: 1.15
  3-point MACE: patients with event/patients analyzed: 119/1102
  Key secondary kidney outcome: hazard ratio vs placebo: 0.87
  Key secondary kidney outcome: patients with event/patients analyzed: 75/1102
  Patients with event/patients analysed, hospitalised heart failure: 43/1102
  Hazard ratio for hospitalised heart failure: 0.82
Table 6
  Composite microvascular endpoint: patients, %: (36.3) %
  ESKD (component of kidney composite outcome): %: (0.03) %
  ESKD (component of kidney composite outcome): no.: 1
  Renal death, sustained ESKD, or sustained decrease of 50% or more in eGFR from baseline: %: (7.5) %
  Renal death, sustained ESKD, or sustained decrease of 50% or more in eGFR from baseline: no.: 263
  Sustained decrease of 40% or more in eGFR (component of kidney composite outcome): %: (1.8) %
  Sustained decrease of 40% or more in eGFR (component of kidney composite outcome): no.: 63
Table 9
  Composite microvascular outcome: number of patients, % of n = 3494: 22.5%
UACR 30 to 300 mg/g
  3-point MACE: hazard ratio vs placebo: 0.95
  3-point MACE: patients with event/patients analyzed: 158/1463
  Key secondary kidney outcome: hazard ratio vs placebo: 1.30
  Key secondary kidney outcome: patients with event/patients analyzed: 53/1463
UACR <30 mg/g
  3-point MACE: hazard ratio vs placebo: 1.10
  3-point MACE: patients with event/patients analyzed: 67/696
  Key secondary kidney outcome: hazard ratio vs placebo: 1.46
  Key secondary kidney outcome: patients with event/patients analyzed: 22/696
UACR >300 mg/g
  3-point MACE: hazard ratio vs placebo: 1.06
  3-point MACE: patients with event/patients analyzed: 208/1333
  Key secondary kidney outcome: hazard ratio vs placebo: 0.97
  Key secondary kidney outcome: patients with event/patients analyzed: 252/1333
[1]
  Patients with event/patients analysed, hospitalised heart failure: 72/1463
  Hazard ratio for hospitalised heart failure: 0.86
[2]
  Patients with event/patients analysed, hospitalised heart failure: 26/696
  Hazard ratio for hospitalised heart failure: 0.76
[3]
  Patients with event/patients analysed, hospitalised heart failure: 111/1333
  Hazard ratio for hospitalised heart failure: 0.99
Across GFR categories
  HbA1c vs PBO across all GFR categories, in words: reduced significantly
  Risk for hypoglycemia vs PBO across all GFR categories, in words: without increased risk for hypoglycemia
Across eGFR categories
  Progression of albuminuria across all eGFR categories, in words: consistent beneficial effect
All patients
  3P-MACE: incidence rate per 1000 PY: 57.7 per 1000 patient years
